In one series the test system is IL-1β production. Nature of the series: Inhibitory activity of the IL-1β production in PMA/polyinosic acid-stimulated THP-1 cells (enzyme immunoassay). It is filed as cell-based, human (THP-1 cells). The settings on record: Homo sapiens, PMA 2 μg/ml and polyinosic acid 200 μg/ml, 22 hours. The protocol: (§1) Determination for the inhibitory activity of the IL-1β production and the inhibitory activity of the TNFα production
(§2) The THP-1 cells, which is the monocyte-established cell line derived from human peripheral blood (ATCC TIB202), were incubated at 37° C. in a 5% CO2 incubator in RPMI 1640 medium (available from Bio-Whittaker Co., Ltd.) containing 10% (v/v) of fetal bovine serum, 2 mM of glutamine, 50 μM of 2-mercaptoethanol, 60 μg/ml of penicillin and 100 μg/ml of streptomycin. The THP-1 cells maintained as described above were centrifuged at 1200 rpm at room temperature for 3 minutes to recover the cells in a 50 ml conical tube. The cell pellets thus obtained were resuspended in RPMI 1640 medium containing 2% (v/v) of fetal bovine serum and the glutamine, 2-mercaptoethanol and antibiotics as described above so as to provide a final THP-1 cell concentration of 2×10^6 cells/ml.
(§3) The cell resuspension having the above concentration was dispensed in 0.5 ml portions to a 24-well plate for cell culture. Then, 2.5 μl each of the solutions of the present imide derivatives dissolved in DMSO was added to each well. The plate was then incubated at 37° C. in a 5% CO2 incubator for one hour. Then, 12-o-tetradecanoylphorbol-13-acetate (hereinafter referred to as PMA) and polyinosic acid were added to each well so as to provide the final concentrations of 2 μg/ml and 200 μg/ml, respectively. The plate was further incubated at 37° C. in a 5% CO2 incubator for 22 hours and the IL-1β and TNFα produced in the cultured broth were assayed. The assay for IL-1β was carried out by means of the enzyme immunoassay kit available from Cayman Chemical Co., Ltd., while the assay of TNFα was done by means of the ELIZA kit available from Genzyme Co., Ltd.
(§4) The inhibitory activity was expressed in terms of IC50 values, wherein the produced amount of IL-1β and the produced amount of TNFα when no imide derivative was added are defined as 100, respectively, and the concentration of each imide derivative of the present invention to inhibit the IL-1β production and TNFα production is defined as IC50, respectively.

In series [1] the test system is TNFα production. Nature of the series: Inhibitory activity of the TNFα production in PMA/polyinosic acid-stimulated THP-1 cells (ELIZA kit). It is filed as cell-based, human (THP-1 cells). To be noted: Homo sapiens, PMA 2 μg/ml and polyinosic acid 200 μg/ml, 22 hours. The procedure:
as §1, §2, §3, §4

Series [2] is described as follows: Determination for cytotoxicity in THP-1 cells (Alamar Blue). It is filed as cell-based. To be noted: human, 24 hours incubation, read-out: LD50 (lethal dose for 50% in the THP-1 cells). The protocol: Determination for Cytotoxicity The THP-1 cells, which is the monocyte-established cell line derived from human peripheral blood (ATCC TIB202), were incubated at 37° C. in a 5% CO2 incubator in RPMI 1640 medium (available from Bio-Whittaker Co., Ltd.) containing 10% (v/v) of fetal bovine serum, 2 mM of glutamine, 50 μM of 2-mercaptoethanol, 60 μg/ml of penicillin and 100 μg/ml of streptomycin. The THP-1 cells maintained as described above were centrifuged at 1200 rpm at room temperature for 3 minutes to recover the cells in a 50 ml conical tube. The cell pellets thus obtained were suspended in RPMI 1640 medium containing 2% (v/v) of fetal bovine serum, 2 mM of glutamine, 50 μM of 2-mercaptoethanol, 60 μg/ml of penicillin and 100 μg/ml of streptomycin so as to provide the final cell concentration of 1×10^6 cells/ml. The cell suspension obtained as above was dispensed in 1 ml portions to a 24-well plate for cell culture. Then, 5 μl each of the solutions of the present imide derivatives dissolved in DMSO was added to each well. The plate was then incubated at 37° C. in a 5% CO2 incubator for 24 hours. After incubation, 100 μl of Alamar Blue (available from Biosource Co., Ltd.) was added to each well and then the plate was further incubated at 37° C. in a 5% CO2 incubator for 3 hours. Thereafter, a supernatant was recovered and determined for a difference in absorbances at 570 nm and 600 nm. Cytotoxicity was then evaluated in accordance with the survival rates determined from the differences in absorbances. More specifically, the lethal dose for 50% (LD50) in the THP-1 cells were calculated.

Series [3] deals with TNFα production. Nature of the series: Inhibitory activity of the TNFα production in LPS-treated mice (blood TNFα level). It is filed as in vivo, DBA/2 strain mice. The settings on record: for Inhibitory rate (%) of TNFα production: 10 mg/kg i.p. twice (before and after 30 minutes from LPS 5.6 mg/kg i.v.), blood TNFα after 2 hours; for inhibitory activity on the TNFα production in mice (in words): 10 mg/kg i.p., LPS-treated DBA/2 mice. The procedure: Determination for the inhibitory activity of the TNFα production To the DBA/2 strain mice previously given with LPS 5.6 mg/kg, i.v. were intraperitoneally administered twice before and after 30 minutes from the LPS administration the present imide derivatives selected from Compound 1, Compound 3, Compound 7, Compound 8, Compound 9 and Compound 26. After 2 hours from the LPD administration, the blood TNFα level was determined to investigate the inhibitory activity of the present imide derivatives on the TNFα production. More specifically, the blood TNFα level was determined when the present imide derivative was given at a dose of 10 mg/kg to calculate the inhibitory rate of the TNFα production.

The term IC50 denotes the point on the concentration scale where inhibition reaches its midpoint. High values mean lower potency, low ones higher potency. Take `CC(=O)N(C(=O)C#Cc1ccccc1)c1ccccn1` [Compound 22]: the IC50 is 12 µM in the series on IL-1β production and 14 µM with TNFα production [1].

For `CC(=O)N(C(=O)C#Cc1ccccc1)c1ccc2c(c1)OCO2` [Compound 15], the IC50 in the series on IL-1β production is 6.3 µM; in the series with TNFα production [1], 1.7 µM.

On to `CC(=O)N(Cc1ccco1)C(=O)C#Cc1ccccc1` [Compound 24], for which the IC50 in the series with IL-1β production was found to be 10 µM; with TNFα production [1] it was 4.4 µM.

For `CC(=O)NC(=O)C#Cc1ccccc1` [Compound 14], the IC50 turned out to be 4.4 µM with IL-1β production and 1.8 µM with TNFα production [1].

As for `O=C(C#Cc1ccccc1)N1CCNC1=O` [Compound 11], the IC50 in the series with IL-1β production turned out to be 1.8 µM; with TNFα production [1], 0.5 µM.

Take `O=C(C#Cc1ccccc1)N1CCN(C(=O)C#Cc2ccccc2)C1=O` [Compound 10]: the IC50 with IL-1β production amounted to 6.7 µM; in the series on TNFα production [1], 0.5 µM.

Consider `CCCCC(=O)N(CCCC)C(=O)C#Cc1ccccc1` [Compound 16], for which the IC50 came to 13 µM in the series on IL-1β production and 14 µM in the series with TNFα production [1].

For `CCN(C(=O)C#Cc1ccccc1)C(=O)c1ccccc1` [Compound 12], the results for the IC50 in the series on IL-1β production and in the series on TNFα production [1] were 9.6 µM and 5.4 µM, respectively.

In turn, `O=C(C#Cc1ccccc1)N1CCCCCC1=O` [Compound 8] returned an IC50 in the series on IL-1β production of 6 µM. The same compound came in with an IC50 in the series with TNFα production [1] of 2.1 µM. For the same compound, the CC50 at 24 h in series [2] is > 200 µM. Further, in the series on TNFα production [3], the “Inhibitory rate (%) of TNFα production” value is 31% and the “inhibitory activity on the TNFα production in mice (in words)” value (“inhibitory activity” below) is recorded as “significant inhibitory activity”.

`O=C(C#Cc1ccc(F)cc1)N1CCCC1=O` [Compound 3] showed an IC50 with IL-1β production of 3.8 µM. This compound also had an IC50 with TNFα production [1] of 1.3 µM. Besides, the CC50 at 24 h in series [2] is > 100 µM. For the same compound, in the series on TNFα production [3], the “Inhibitory rate (%) of TNFα production” value worked out at 37% and the “inhibitory activity” value is recorded as “significant inhibitory activity”.

Take `CCN(C(C)=O)C(=O)C#Cc1ccccc1` [Compound 18]: the IC50 stood at 5.7 µM with IL-1β production and 4.4 µM with TNFα production [1].

Regarding `COC(=O)C1CCC(=O)N1C(=O)C#Cc1ccccc1` (racemic) [Compound 21], the figures for the IC50 in the series with IL-1β production and in the series with TNFα production [1] were 7 µM and 0.6 µM, respectively.

For the compound `O=C(C#Cc1ccc(Cl)cc1)N1CCCC1=O` [Compound 2], the IC50 in the series with IL-1β production is 5.5 µM; with TNFα production [1] it was 1.6 µM.

For the compound `CCN(C(=O)C#Cc1ccccc1)C(=O)c1cccs1` [Compound 25], the figures for the IC50 in the series with IL-1β production and in the series with TNFα production [1] were > 30 µM and 4.8 µM, respectively.

Consider `COc1ccccc1CN(C(C)=O)C(=O)C#Cc1ccccc1` [Compound 17], for which the figures for the IC50 in the series on IL-1β production and in the series with TNFα production [1] were 3.1 µM and 1.8 µM, respectively.

In the series with IL-1β production, `CC1CCC(=O)N1C(=O)C#Cc1ccccc1` (stereo not shown) [Compound 9] had an IC50 of 2.8 µM. The compound also registered a half-inhibitory concentration (IC50) with TNFα production [1] of 0.9 µM. Moreover, the CC50 at 24 h in series [2] came to 110 µM. For the same compound, in the series on TNFα production [3], the “Inhibitory rate (%) of TNFα production” value was 29% and the “inhibitory activity” value is “significant inhibitory activity”.

`CC(=O)N(CCc1ccccc1)C(=O)C#Cc1ccccc1` [Compound 28]: the IC50 in the series with IL-1β production was 8.8 µM; in the series with TNFα production [1], 1.7 µM.

For `CCN(C(=O)C#Cc1ccccc1)C(=O)COC` [Compound 29], the IC50 in the series on IL-1β production and with TNFα production [1] was > 30 µM in each case.

With `O=C(C#Cc1ccccc1)N1CCOC1=O` [Compound 7], the midpoint of inhibition with IL-1β production, the IC50, lay at 1.1 µM. For the same compound, it took 1.2 µM to reach half-maximal inhibition in the series on TNFα production [1] (IC50). The CC50 at 24 h in series [2] was > 200 µM. Moreover, in the series with TNFα production [3], the “Inhibitory rate (%) of TNFα production” value amounted to 22% and the “inhibitory activity” value is listed as “significant inhibitory activity”.

Regarding `CC(=O)N(CCN(C)C)C(=O)C#Cc1ccccc1` [Compound 30], the values for the IC50 with IL-1β production and in the series on TNFα production [1] were 6.3 µM and 3.7 µM, respectively.

For the compound `O=C(C#Cc1ccccc1)N(Cc1ccc(F)cc1)C(=O)c1ccccc1` [Compound 13], the IC50 in the series on IL-1β production and in the series on TNFα production [1] was 15 µM in each case.

As to `O=C(C#Cc1ccccc1)N1CCCC1=O` [Compound 1], the IC50 was found to be 1.4 µM with IL-1β production and 1 µM with TNFα production [1]. For the same compound, in series [2], the CC50 at 24 h came to 70 µM. Besides, the “Inhibitory rate (%) of TNFα production” value in the series on TNFα production [3] is 22%. Further, the “inhibitory activity” value in the series on TNFα production [3] is “significant inhibitory activity”.

On to `N#Cc1ccc(C#CC(=O)N2CCCC2=O)cc1` [Compound 4], for which the IC50 worked out at 7 µM with IL-1β production and 1.7 µM in the series with TNFα production [1].

With `Cc1ccccc1N(C(=O)C#Cc1ccccc1)C(=O)CCc1ccccc1` [Compound 20], the IC50 turned out to be 1.3 µM in the series on IL-1β production and 1.9 µM in the series on TNFα production [1].

Turning to `CC(=O)N(C(=O)C#Cc1ccccc1)c1ccncc1` [Compound 26], the half-maximal inhibitory concentration (IC50) in the series with IL-1β production turned out to be 8.8 µM; in the series on TNFα production [1], 1.7 µM. Also, the “Inhibitory rate (%) of TNFα production” value with TNFα production [3] amounted to 37%. The “inhibitory activity” value in the series with TNFα production [3] is recorded as “significant inhibitory activity”.

Regarding `O=C(C#Cc1ccc(F)cc1)N1CCOC1=O` [Compound 6], the IC50 in the series with IL-1β production is 2.4 µM; in the series on TNFα production [1], 1.7 µM. Besides, the CC50 at 24 h in series [2] was > 100 µM.

For `O=C(C#Cc1ccccc1)N(C(=O)c1ccccc1)c1ccc(F)cc1F` [Compound 27], the IC50 stood at 14 µM in the series with IL-1β production and 3 µM in the series with TNFα production [1].

Consider `CCN(C(=O)C#Cc1ccccc1)C(=O)Cc1ccccc1Cl` [Compound 19], for which the IC50 with IL-1β production turned out to be 2 µM; in the series with TNFα production [1], 1.3 µM.

`N#Cc1ccc(C#CC(=O)N2CCOC2=O)cc1` [Compound 5]: the values for the IC50 in the series with IL-1β production and in the series with TNFα production [1] were 2.6 µM and 2.1 µM, respectively.

For the origin of these results see patent publication US5847123A, “Imide derivatives for inhibiting the production of interleukin-1β and the production of tumor necrosis factor α” (Nisshin Flour Milling Co., Ltd., priority 1996, dated 1998).
